Measured values as given in patent publication US9238034B2, “FN14 antagonists and therapeutic uses thereof” (THE TRANSLATIONAL GENOMICS RESEARCH INSTITUTE, priority 2013, dated 2016).
Where two headings read alike, the source gives them in different places.

How the values were obtained:
[1] = molecular target: T1, Fn14-TWEAK binding (Homo sapiens, UniProt Q9NP84); assay: Double sandwich ELISA small molecule screening of TWEAK binding to captured Fn14-Fc
T1 construct: the human Fc fragment-tagged Fn14 extracellular domain (R&D Systems) was captured; purchased R&D Systems (Fn14-Fc); Peprotech (recombinant TWEAK)
T1 sequence (Q9NP84 28-80 limits assumed): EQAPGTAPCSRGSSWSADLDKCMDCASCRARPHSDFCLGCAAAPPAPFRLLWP
Method: Double Sandwich ELISA. sTWEAK and sTWEAK variant proteins were synthesized as described above. The expression level of each IVTT synthesized sTWEAK protein was analyzed by western blot analysis and used in approximately equal amounts in the ELISA. To assay the binding of wild type sTWEAK and sTWEAK variants to Fn14, the human Fc fragment-tagged Fn14 extracellular domain (R&D Systems) was captured in an Immuno 96-microwell white plate by adding 100 μL of 0.025 μg/mL Fn14-Fc to wells coated with goat anti-human Fcγ fragment specific monoclonal antibody. After capture, the wells were washed 3× with Dulbecco's Phosphate Buffered Saline (DPBS) containing 0.05% Tween-20. Unbound sites were blocked by addition of 100 μL of blocking solution containing 0.05% Tween-20, 1% BSA, and 3% normal goat serum (NGS) in DPBS for 1 hr at room temperature. 0.01 μL of sTWEAK or sTWEAK variant made with the human IVTT kit or 2 μL of sTWEAK or sTWEAK variant made with the rabbit IVTT kit was diluted in 100 μL of sample diluent (DPBS+1% BSA+0.005% Tween-20) and then added to the wells for 2 hr followed by addition of 100 μL of 50 ng/mL biotinylated TWEAK detection antibody (R&D Systems) in sample diluent. Following incubation for additional 2 hr at room temperature, wells were washed 3× with DPBS containing 0.05% Tween-20 and bound biotinylated TWEAK antibody was detected by incubation with an HRP-conjugated streptavidin. The total luminescent signal was obtained using Femto ELISA kit (Pierce Biochemical) and compared to the standard curve signal obtained from the binding of 0-4000 pg/mL recombinant TWEAK (Peprotech inc) to Fn14-Fc. Using 5-parameter logistic curve fitting for standard curve analysis (Sigmaplot 11.0, SyStat Software Inc.), binding of sTWEAK or TWEAK variant to Fn14-Fc was determined. The data represents that observed for at least four replicate assays.
The small molecule screening was performed using the ELISA assay described above with minor modifications. Briefly, after capturing Fn14-Fc in the microwell plate, 80 μl of drug solution in sample diluent was added to desired wells and incubated for 2 hrs at room temperature. Subsequently, 20 μL of 2500 pg/mL (5×) TWEAK was added to each well to achieve final TWEAK concentration of 500 pg/mL and incubated for additional 2 hr at room temperature. Bound TWEAK was detected as described in the protocol above. All small molecule inhibitors were screened at 25 μM final concentration (final DMSO concentration of 0.125%) in duplicate. Cyclohexamide, a non-specific small molecule, at 25 μM concentration was used as negative control. The anti-Fn14 antibody ITEM-4, added at 2.5 μg/mL, was used as a positive control for complete blockade of TWEAK binding. Reduction in TWEAK binding due to compound addition or controls was calculated by using standard curve (Separate standard curve was obtained for every screening plate).

[2] = system: T98G glioma cells; assay: Cell migration assay, modified Boyden chamber, TWEAK induced; type: cell-based, human; conditions: 10 μM, 5 hours
Method: Cell Migration Assay. The effect of pharmacological inhibition of TWEAK/Fn14 signaling on glioma cell migration was analyzed using a modified Boyden chamber (Neuroprobe, Cabin John, Md.) as described previously (Lamszus, K., et al. (1998) Journal international du cancer 75, 19-28; Brockmann, M. A., et al. (2003) Neurosurgery 52, 1391-1399). Each well contains a […] pore size Nucleopore filter that had been coated with 50 μg/mL PureCol® (Bovine Collagen) (Advanced Biomatrix, Poway, Calif.). T98G glioma cells were treated with selected drug compound for 1 hr and then seeded at 4.8×10^4 cells in 100 μL of DMEM with 0.1% bovine serum assay medium to the top well of the chamber. TWEAK was added to the lower wells of the chamber using DMEM with 0.1% bovine serum albumin as assay medium. After incubation for 5 hours at 37° C., nonmigrated cells were scraped off the upper side of the filter, and filters were stained with 4′,6-diamidino-2-phenylindole (DAPI). Nuclei of migrated cells were counted in 5 high-power fields (HPF) with a 20× objective. Values were assessed in triplicate.

[3] = system: TNFα-induced NF-κB activity; assay: Counter-screen NF-κB luciferase assay, NF-κB-Luc reporter cells stimulated with TNFα; type: cell-based, human
Method: Briefly, Fn14-NF-κB-Luc reporter cells, (Fn14 overexpressing HEK293 NF-κB luciferase cells), were seeded in tissue culture treated white 96-well plates at 1×10^4 cells/well in 80 μL Opti-MEM media (Invitrogen) and incubated for 48 hr at 37° C. After 48 hr incubation, 10 μL of the drug solution (200 μM) in DMSO was added to the designated wells at a final concentration of 20 μM. After 1 hr of drug incubation at 37° C., 10 μL of 10× purified recombinant TWEAK (Peprotech Inc.; 300 ng/mL) in 1 mg/mL BSA in PBS was added to each well and incubated for 5 hr at 37° C. DMSO alone was used as a negative control whereas anti-TWEAK antibody suspended in DMSO was used as a positive control for the assay. Luminescent signal was determined using Bright-Glo assay kit (Promega, Madison, Wis.) according to the manufacturer's instructions and normalized to negative control. A counter-screen assay was carried out using TNFα to stimulate NF-κB activity in NF-κB-Luc reporter cells (HEK293 NF-κB luciferase cells). The counter-screen assay was performed similar to the drug screening assay described above, except 10 μL of 10× purified recombinant TNFα (R&D Scientific; 300 ng/mL) in 1 mg/mL BSA in PBS was added to each well instead of TWEAK for NF-κB activation. […] IC50 values for dose response curve were determined using the curve fitting functionality of GraphPad Prism software.

inhibition at 25 µM ([1]; Table 4, second screening iteration, 25 μM, average of duplicate, read-out: % Reduction in TWEAK Binding, Average): 16.9%
inhibition at 25 µM ([1]; Table 4, second screening iteration, 25 μM, replicate 1, read-out: % Reduction in TWEAK Binding, Data 1): 18.8%
inhibition at 25 µM ([1]; Table 4, second screening iteration, 25 μM, replicate 2, read-out: % Reduction in TWEAK Binding, Data 2): 14.9%
inhibition at 25 µM ([1]; Table 5, 25 μM, average of duplicate, read-out: % Reduction in TWEAK Binding, Average): 16.9%
inhibition at 25 µM ([1]; Table 5, 25 μM, replicate 1, read-out: % Reduction in TWEAK Binding, Data 1): 18.8%
inhibition at 25 µM ([1]; Table 5, 25 μM, replicate 2, read-out: % Reduction in TWEAK Binding, Data 2): 14.9%
SMILES: O=C(c1cn(-c2cccc(Cl)c2)nn1)N1CCSCC1 [Compound L524-0366]
TWEAK-induced T98G cell migration [2]: completely suppressed
IC50 ([3]; Homo sapiens, NF-κB-Luc cells stimulated with TNFα, 0.75 μM to 250 μM, read-out: IC50, TNFα stimulated luciferase induction): 31 µM
inhibition of TNFα-induced NF-κB driven luciferase activity ([3]; NF-κB-Luc cells, 20 μM): only minor inhibition
